Results on 25 compounds are retold here after article PMC5112578, “Zika antiviral chemotherapy: identification of drugs and promising starting points for drug discovery from an FDA-approved library” (F1000Research, 2016).

Structures are written as SMILES. Where a name gives a salt, the structure may show the parent alone. Read-outs that look alike come from different tables or passages of the source. Numbered stars: 1 amine (or outer) side, 2 acyl side, 3 side chain; on linkers, the order of the positions; unused ones are H or OH. Bridge positions count the residues as written; N and C are the ends. Square brackets hold non-standard residues; d marks the D form. Peptide text beside a SMILES is read from it. I, II: the chains in the order shown. Actinocin(9to1) = Cc1c2oc3c(C)ccc(C(=O)[*:1])c3nc-2c(C(=O)[*:2])c(N)c1=O; NMeV = CN[C@H](C(=O)O)C(C)C; Sar = CNCC(=O)O Bounds are passed on as bounds.

Series [1] relates to Zika virus (ZIKV).
Series [2] has as its system Zika virus (ZIKV). As to the kind of experiment: ZIKV high content screening assay (infection ratio by immunofluorescence in Huh7). Particulars: for Max. Activity (% of infection inhibition) / S.I. (CC 50/EC 50): Table 2; for Max. Activity (% of infection inhibition): dose-response; for Max. Activity (% of infection inhibition) / activity: Huh7, ZIKV, 72 h; for activity: in our assay, library screened at 20 µM; for S.I. (CC 50/EC 50): SI = CC50/EC50, Huh7; for SI: SI = CC50/EC50.

The conditions of series [3]: Table 2; no reference given; cited from earlier work.
A further series deals with Huh7 cells. As to the kind of experiment: Cell toxicity / cell ratio in the ZIKV high content assay. Particulars: for toxicity: in our assay, library screened at 20 µM, Huh7, 72 h; for CC50: Table S2, 50% reduction in cell viability vs infected IFNα2A treated cells, 72 h.
The conditions of series [4]: in humans; no reference given; cited from earlier work.
The mark [5] stands for this setting: Table S2, 9 point DRC from 50 µM, Huh7, ZIKV MOI 0.5, 72 h.

One may read the EC50 as the concentration needed to bring the measured effect to its halfway point. Turning to `O=c1[nH]cc(F)c(=O)[nH]1` [5-Fluorouracil], the “S.I. (CC 50/EC 50)” value in the series on Zika virus (ZIKV) [1] is recorded as over 2.5. The “Max. Activity (% of infection inhibition)” value in the series on Zika virus (ZIKV) [2] is recorded as 57%. Moreover, the half-maximal effective concentration (EC50) in the series on Zika virus (ZIKV) [2] (Zika virus, Huh-7, 72 h) is 14.3 ± 8.6 µM. Moreover, the “Water Solubility” value in series [3] is 12500 µg/mL.

Consider `O=c1cnn([C@@H]2O[C@H](CO)[C@@H](O)[C@H]2O)c(=O)[nH]1` [6-Azauridine], for which the “Max. Activity (% of infection inhibition)” value with Zika virus (ZIKV) [2] came to 88.3%. In the series on Zika virus (ZIKV) [2] (Zika virus, Huh-7, 72 h), the EC50 was determined as 2.3 ± 0.1 µM. Also, the “Water Solubility (mg/mL)” value in series [3] is “Very high”.

For the compound `Cn1cnc([N+](=O)[O-])c1Sc1ncnc2nc[nH]c12` [Azathioprine], the toxicity result in the series on Huh7 cells was “higher than 50%”.

In the case of `CC(C)/N=c1\cc2n(-c3ccc(Cl)cc3)c3ccccc3nc-2cc1Nc1ccc(Cl)cc1` [Clofazimine], the activity result in the series with Zika virus (ZIKV) [2] is reported as “lower than 50%”.

As to `Cc1c2oc3c(C)ccc(C(=O)N[C@@H]4C(=O)N[C@H](C(C)C)C(=O)N5CCC[C@H]5C(=O)N(C)CC(=O)N(C)[C@@H](C(C)C)C(=O)O[C@@H]4C)c3nc-2c(C(=O)N[C@@H]2C(=O)N[C@H](C(C)C)C(=O)N3CCC[C@H]3C(=O)N(C)CC(=O)N(C)[C@@H](C(C)C)C(=O)O[C@@H]2C)c(N)c1=O` [Dactinomycin] (I: T[dV]P[Sar][NMeV] / II: T[dV]P[Sar][NMeV]; ester I:1-I:C, II:1-II:C; linker I:N-II:N via Actinocin(9to1)), in the series on Huh7 cells, the toxicity entry is “higher than 50%”.

As to `C[C@H]1O[C@@H](O[C@H]2[C@@H](O)C[C@H](O[C@H]3[C@@H](O)C[C@H](O[C@H]4CC[C@@]5(C)[C@H](CC[C@@H]6[C@@H]5C[C@@H](O)[C@]5(C)[C@@H](C7=CC(=O)OC7)CC[C@]65O)C4)O[C@@H]3C)O[C@@H]2C)C[C@H](O)[C@@H]1O` [Digoxin], in the series with Huh7 cells, the toxicity result is “higher than 50%”.

As for `CO[C@@H]1[C@@H](O[C@@H]2O[C@H](C)[C@@H](O[C@H]3C[C@@](C)(O)[C@@H](OC(=O)CC(C)C)[C@H](C)O3)[C@H](N(C)C)[C@H]2O)[C@@H](CC=O)C[C@@H](C)[C@@H](O)/C=C/C=C/C[C@@H](C)OC(=O)C[C@H]1O` [Kitasamycin], in the series with Zika virus (ZIKV) [2], the “S.I. (CC 50/EC 50)” value is reported as over 1.2 and the “Max. Activity (% of infection inhibition)” value turned out to be 69.1%. For the same compound, the 50% effective concentration (EC50) in the series with Zika virus (ZIKV) [2] (Zika virus, Huh-7, 72 h) was found to be 41.7 ± 10.1 µM. In series [3], the “Water Solubility” value is 50 µg/mL.

As for `CC[C@H](C)C(=O)O[C@H]1C[C@@H](C)C=C2C=C[C@H](C)[C@H](CC[C@@H]3C[C@@H](O)CC(=O)O3)[C@H]21` [Lovastatin], in the series on Zika virus (ZIKV) [2], the “S.I. (CC 50/EC 50)” value is recorded as over 2.5 and the “Max. Activity (% of infection inhibition)” value was 60.7%. Further, in the series with Zika virus (ZIKV) [2] (Zika virus, Huh-7, 72 h), the EC50 was 20.7 ± 8.6 µM.

As to `COC(=O)Nc1nc2ccc(C(=O)c3ccccc3)cc2[nH]1` [Mebendazole], the toxicity entry with Huh7 cells is “higher than 50%”.

Take `OC(c1cc(C(F)(F)F)nc2c(C(F)(F)F)cccc12)C1CCCCN1` (centres unmarked) [Mefloquine]: the toxicity result with Huh7 cells is recorded as “higher than 50%”.

Turning to `S=c1[nH]cnc2nc[nH]c12` [Mercaptopurine], the activity entry with Zika virus (ZIKV) [2] is listed as “lower than 50%”.

With `COc1c2occc2cc2ccc(=O)oc12` [Methoxsalen], in the series with Zika virus (ZIKV) [2], the activity result was “lower than 50%”.

One may read the bioavailability as dose-corrected exposure relative to a reference, in per cent. Consider `O=C1c2cccc3c2[C@H](CCC3)CN1[C@@H]1CN2CCC1CC2` [Palonosetron], for which, in the series on Zika virus (ZIKV) [1], the “S.I. (CC 50/EC 50)” value is over 3.06. In addition, the “Max. Activity (% of infection inhibition)” value with Zika virus (ZIKV) [2] turned out to be 97.7%. For the same compound, the half-maximal effective concentration (EC50) in the series with Zika virus (ZIKV) [2] (Zika virus, Huh-7, 72 h) is 16.3 ± 7.7 µM. Moreover, in series [3], the “Water Solubility (mg/mL)” value is given as “Very high”. For the same compound, the bioavailability in series [4] is 97%.

As a reminder, the CC50 is the concentration that lowers cell viability or growth by half. For `Clc1ccc2c(c1)CCc1cccnc1C2=C1CCNCC1` [SAM001246545], in the series with Huh7 cells, the cytotoxic concentration (CC50) was 20.7 ± 4.1 µM.

For the compound `Cc1ccc(NC(=O)c2ccc(CN3CCN(C)CC3)cc2)cc1Nc1nccc(-c2cccnc2)n1` [SAM001246622], in the series with Zika virus (ZIKV) [2] (setting [5]), the concentration for a half-maximal effect (EC50) was determined as 13.3 ± 5.8 µM.

With `COCCCC/C(=N\OCCN)c1ccc(C(F)(F)F)cc1.O=C(O)/C=C\C(=O)O` [SAM001246977], in the series on Zika virus (ZIKV) [2] (setting [5]), the EC50 was 17 ± 3.6 µM. In the series with Zika virus (ZIKV) [2] (Table S2), the SI was determined as 1.43. In addition, the CC50 in the series on Huh7 cells was 24.3 ± 3.1 µM.

As for `CN1CCN(CCCN2c3ccccc3Sc3ccc(Cl)cc32)CC1.O=C(O)/C=C\C(=O)O.O=C(O)/C=C\C(=O)O` [SAM001247054], the EC50 in the series on Zika virus (ZIKV) [2] (setting [5]) stood at 10.3 ± 3.1 µM. In addition, the SI in the series with Zika virus (ZIKV) [2] (Table S2) is 0.87. In addition, the CC50 in the series on Huh7 cells was 9 ± 4.4 µM.

Regarding `Clc1ccccc1C(c1ccccc1)(c1ccccc1)n1ccnc1` [SAM001247056], in the series on Zika virus (ZIKV) [2] (setting [5]), the EC50 turned out to be 14.3 ± 3.5 µM. Further, the SI in the series with Zika virus (ZIKV) [2] (Table S2) is recorded as 0.6. The CC50 in the series on Huh7 cells was determined as 8.7 ± 1.2 µM.

Consider `CC(C)c1ccc2c(c1)c(SC(C)(C)C)c(CC(C)(C)C(=O)O)n2Cc1ccc(Cl)cc1` [SAM001247075], for which the EC50 with Zika virus (ZIKV) [2] (setting [5]) is 12 ± 1.7 µM. The SI in the series on Zika virus (ZIKV) [2] (Table S2) is 2.8. For the same compound, in the series on Huh7 cells, the 50% cytotoxic concentration (CC50) came to 33.7 ± 10.8 µM.

For the compound `Oc1cc2c(cc1O)[C@H]1c3ccccc3CN[C@@H]1CC2` [SAM001247083], in the series on Zika virus (ZIKV) [2] (setting [5]), the EC50 stood at 21.5 ± 0.7 µM. The CC50 in the series on Huh7 cells turned out to be 16.5 µM.

Turning to `N=C(NCc1ccc(Cl)cc1)SCCCc1c[nH]cn1` [SAM001247107], the EC50 in the series with Zika virus (ZIKV) [2] (setting [5]) was 14 µM. In addition, in the series on Zika virus (ZIKV) [2] (Table S2), the SI was 1.38. Besides, the 50% cytotoxic concentration (CC50) in the series on Huh7 cells is 19.3 ± 9.7 µM.

For the compound `CC(CN1c2ccccc2Sc2ccccc21)N(C)C.Cl` (centres unmarked) [SAM002264636], the half-maximal effective concentration (EC50) with Zika virus (ZIKV) [2] (setting [5]) worked out at 19.7 ± 4.5 µM. Also, in the series on Zika virus (ZIKV) [2] (Table S2), the SI stood at 1.44. The CC50 with Huh7 cells came out at 28.3 ± 17.6 µM.

Turning to `CN1C2CCC1CC(OC(c1ccccc1)c1ccccc1)C2.CS(=O)(=O)O` (centres unmarked) [SAM002548938], in the series with Zika virus (ZIKV) [2] (setting [5]), the EC50 is 21.3 ± 10 µM. The SI in the series with Zika virus (ZIKV) [2] (Table S2) is listed as 1.47. The CC50 with Huh7 cells came out at 31.3 ± 15.3 µM.

Consider `Clc1ccc2c(c1)C(N1CCNCC1)=Nc1ccccc1O2` [SAM002564189], for which, in the series with Zika virus (ZIKV) [2] (setting [5]), the EC50 is 19.3 ± 5.5 µM. Besides, the SI in the series with Zika virus (ZIKV) [2] (Table S2) turned out to be 0.6. Besides, in the series on Huh7 cells, the CC50 amounted to 11.7 ± 11 µM.

With `CN[C@H]1CC[C@@H](c2ccc(Cl)c(Cl)c2)c2ccccc21` [Sertraline-HCl], in the series on Zika virus (ZIKV) [2], the activity entry is given as “lower than 50%”.
